IC50 data for 24 compounds are collected here from ChEMBL document CHEMBL1144933, “Novel bioactive and stable neurotensin peptide analogues capable of delivering radiopharmaceuticals and molecular beacons to tumors” (J Med Chem, 2003).

*1 amine or outer side, *2 acyl side, *3 side chain or, on linkers, in order; H or OH if unused. Where a SMILES comes first, the peptide text is derived from it. [ ]: non-standard residue; d: D form. The star is where a group is joined. Abu(1-amidino-4-piperidyl) = N=C(N)N1CCC(CC[C@H](N)C(=O)O)CC1; Gly(1-amidinopiperidin-4-yl) = N=C(N)N1CCC([C@H](N)C(=O)O)CC1; Ala(1-amidino-4-piperidyl) = N=C(N)N1CCC(C[C@H](N)C(=O)O)CC1; FITC = O=C1OC2(c3ccc(O)cc3Oc3cc(O)ccc32)c2ccc(NC(=S)*)cc21; DTPA = O=C(O)CN(CCN(CC(=O)O)CC(=O)O)CCN(CC(=O)O)CC(=O)*; Phe(4-guanidino) = N=C(N)Nc1ccc(C[C@H](N)C(=O)O)cc1; Gly(piperidin-4-yl) = N[C@H](C(=O)O)C1CCNCC1; X1 = NCC1CCC(C[C@H](N[*:1])C(=O)[*:2])CC1; Tle = CC(C)(C)[C@H](N)C(=O)O

In one experiment the target is Neurotensin receptor type 1 (Homo sapiens, UniProt P30989). As to the kind of experiment: Binding affinity towards neurotensin receptor in membranes prepared from HT-29 cell line, relative to [111In]-labeled neurotensin peptide.
Sequence of Neurotensin receptor type 1 (P30989 whole entry): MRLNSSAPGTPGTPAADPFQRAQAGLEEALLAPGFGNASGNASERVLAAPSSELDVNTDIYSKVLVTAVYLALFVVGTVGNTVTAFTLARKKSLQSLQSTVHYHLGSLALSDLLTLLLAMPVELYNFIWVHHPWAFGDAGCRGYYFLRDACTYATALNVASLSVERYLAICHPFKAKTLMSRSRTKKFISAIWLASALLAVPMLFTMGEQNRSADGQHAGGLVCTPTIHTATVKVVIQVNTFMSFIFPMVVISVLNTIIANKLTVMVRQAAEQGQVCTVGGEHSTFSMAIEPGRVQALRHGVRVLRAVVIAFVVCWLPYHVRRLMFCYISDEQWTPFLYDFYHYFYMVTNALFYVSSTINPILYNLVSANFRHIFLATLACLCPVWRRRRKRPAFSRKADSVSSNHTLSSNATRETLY
Details: not given
Take `CC(C)(C)[C@H](NC(=O)[C@H](Cc1ccc(O)cc1)NC(=O)[C@@H]1CCCN1C(=O)[C@H](CCCN=C(N)N)NC(=O)[C@@H](NC(=O)[C@@H]1CCCN1C(=O)[C@@H](CCCCN)NC(=O)CN(CCN(CCN(CC(=O)O)CC(=O)O)CC(=O)O)CC(=O)O)C1CCN(C(=N)N)CC1)C(=O)N[C@@H](CC1CCCCC1)C(=O)O`: the IC50 (as a rule, the concentration at which inhibition is half-maximal) came out at 11.7 nM. On the same count and under the same terms, then `CC(C)(C)C[C@H](NC(=O)[C@@H](NC(=O)[C@H](Cc1ccc(O)cc1)NC(=O)[C@@H]1CCCN1C(=O)[C@H](CCCNC(=N)N)NC(=O)[C@@H](NC(=O)[C@@H]1CCCN1C(=O)[C@H](CCCCN)NC(=O)[C@H](CC(N)=O)NC(=O)[C@H](CCC(=O)O)NC(=O)[C@@H](Cc1ccc(O)cc1)NC(=O)CN(CCN(CCN(CC(=O)O)CC(=O)O)CC(=O)O)CC(=O)O)C1CCN(C(=N)N)CC1)C(C)(C)C)C(=O)O`, with 0.4 nM. On the same count and under the same terms, then `CC[C@H](C)[C@H](NC(=O)[C@H](Cc1ccc(O)cc1)NC(=O)[C@@H]1CCCN1C(=O)[C@H](CCCN=C(N)N)NC(=O)[C@H](Cc1ccc(NC(=N)N)cc1)NC(=O)[C@@H]1CCCN1C(=O)[C@@H](CCCCN)NC(=O)CN(CCN(CCN(CC(=O)O)CC(=O)O)CC(=O)O)CC(=O)O)C(=O)N[C@@H](CC(C)C)C(=O)O`, with 0.5 nM; and `CC[C@H](C)[C@H](NC(=O)[C@H](Cc1ccc(O)cc1)NC(=O)[C@@H]1CCCN1C(=O)[C@H](Cc1ccc(NC(=N)N)cc1)NC(=O)[C@H](Cc1ccc(NC(=N)N)cc1)NC(=O)[C@@H]1CCCN1C(=O)[C@@H](CCCCN)NC(=O)CN(CCN(CCN(CC(=O)O)CC(=O)O)CC(=O)O)CC(=O)O)C(=O)N[C@@H](CC(C)C)C(=O)O` ({DTPA}-[dK]P[Phe(4-guanidino)][Phe(4-guanidino)]PYIL-OH), with 22.1 nM.

Turning to `CC(C)(C)C[C@H](NC(=O)[C@@H](NC(=O)[C@H](Cc1ccc(O)cc1)NC(=O)[C@@H]1CCCN1C(=O)[C@H](CCCN=C(N)N)NC(=O)[C@@H](NC(=O)[C@@H]1CCCN1C(=O)[C@@H](CCCCN)NC(=O)CN(CCN(CCN(CC(=O)O)CC(=O)O)CC(=O)O)CC(=O)O)C1CCN(C(=N)N)CC1)C(C)(C)C)C(=O)O`, the IC50 is 21.7 nM. Still for that read-out and setting: then `CC(C)(C)[C@H](NC(=O)[C@H](Cc1ccc(O)cc1)NC(=O)[C@@H]1CCCN1C(=O)[C@H](CCCN=C(N)N)NC(=O)[C@@H](NC(=O)[C@@H]1CCCN1C(=O)[C@H](CCCCN)NC(=O)[C@H](CC(N)=O)NC(=O)[C@H](CCC(=O)O)NC(=O)[C@@H](Cc1ccc(O)cc1)NC(=O)CN(CCN(CCN(CC(=O)O)CC(=O)O)CC(=O)O)CC(=O)O)C1CCN(C(=N)N)CC1)C(=O)N[C@@H](CC1CCCCC1)C(=O)O`, with 0.6 nM; and `CC(C)C[C@H](NC(=O)[C@@H](NC(=O)[C@H](Cc1ccc(O)cc1)NC(=O)[C@@H]1CCCN1C(=O)[C@H](CCCNC(=N)N)NC(=O)[C@H](CC1CCN(C(=N)N)CC1)NC(=O)[C@@H]1CCCN1C(=O)[C@@H](CCCCN)NC(=O)CN(CCN(CCN(CC(=O)O)CC(=O)O)CC(=O)O)CC(=O)O)C(C)(C)C)C(=O)O` ({DTPA}-[dK]P[Ala(1-amidino-4-piperidyl)]RPY[Tle]L-OH), with 2.5 nM; and `CC(C)C[C@H](NC(=O)[C@@H](NC(=O)[C@H](Cc1ccc(O)cc1)NC(=O)[C@@H]1CCCN1C(=O)[C@H](CCCN=C(N)N)NC(=O)[C@@H](NC(=O)[C@@H]1CCCN1C(=O)[C@H](CCCCN)NC(=O)[C@H](CC(N)=O)NC(=O)[C@H](CCC(=O)O)NC(=O)[C@@H](Cc1ccc(O)cc1)NC(=O)CN(CCN(CCN(CC(=O)O)CC(=O)O)CC(=O)O)CC(=O)O)C1CCN(C(=N)N)CC1)C(C)(C)C)C(=O)O`, with 1.5 nM. Still for that read-out and setting: as for `CC(C)C[C@H](NC(=O)[C@@H](NC(=O)[C@H](Cc1ccc(O)cc1)NC(=O)[C@@H]1CCCN1C(=O)[C@H](CCCN=C(N)N)NC(=O)[C@H](Cc1ccc(NC(=N)N)cc1)NC(=O)[C@@H]1CCCN1C(=O)[C@@H](CCCCN)NC(=O)CN(CCN(CCN(CC(=O)O)CC(=O)O)CC(=O)O)CC(=O)O)C(C)(C)C)C(=O)O` ({DTPA}-[dK]P[Phe(4-guanidino)]RPY[Tle]L-OH), the figure is 24.6 nM; as for `CC(C)C[C@H](NC(=O)[C@@H](NC(=O)[C@H](Cc1ccc(O)cc1)NC(=O)[C@@H]1CCCN1C(=O)[C@H](CCCN=C(N)N)NC(=O)[C@@H](NC(=O)[C@@H]1CCCN1C(=O)[C@H](CC1CCC(CN)CC1)NC(=O)CN(CCN(CCN(CC(=O)O)CC(=O)O)CC(=O)O)CC(=O)O)C1CCN(C(=N)N)CC1)C(C)(C)C)C(=O)O` (stereo partly drawn) ({DTPA}-[X1]P[Gly(1-amidinopiperidin-4-yl)]RPY[Tle]L-OH), 0.3 nM; as for `CC[C@H](C)[C@H](NC(=O)[C@H](Cc1ccc(O)cc1)NC(=O)[C@@H]1CCCN1C(=O)[C@H](Cc1ccc(N=C(N)N)cc1)NC(=O)[C@H](CCCNC(=N)N)NC(=O)[C@@H]1CCCN1C(=O)[C@@H](CCCCN)NC(=O)CN(CCN(CCN(CC(=O)O)CC(=O)O)CC(=O)O)CC(=O)O)C(=O)N[C@@H](CC(C)C)C(=O)O`, 0.4 nM.

As for `CC(C)C[C@H](NC(=O)[C@@H](NC(=O)[C@H](Cc1ccc(O)cc1)NC(=O)[C@@H]1CCCN1C(=O)[C@H](CCCNC(=N)N)NC(=O)[C@@H](NC(=O)[C@H](CCCN=C(N)N)NC(=O)[C@@H]1CCN1C(=O)[C@@H](CCCCN)NC(=O)CN(CCN(CCN(CC(=O)O)CC(=O)O)CC(=O)O)CC(=O)O)C1CCN(C(=N)N)CC1)C(C)(C)C)C(=O)O`, the IC50 came out at 11.5 nM. Compared with the last compound, the IC50 is about 29-fold higher. Still for that read-out and setting: as for `CC(C)C[C@H](NC(=O)[C@@H](NC(=O)[C@H](Cc1ccc(O)cc1)NC(=O)[C@@H]1CCCN1C(=O)[C@H](CCCNC(=N)N)NC(=O)[C@H](CCC1CCN(C(=N)N)CC1)NC(=O)[C@@H]1CCCN1C(=O)[C@@H](CCCCN)NC(=O)CN(CCN(CCN(CC(=O)O)CC(=O)O)CC(=O)O)CC(=O)O)C(C)(C)C)C(=O)O` ({DTPA}-[dK]P[Abu(1-amidino-4-piperidyl)]RPY[Tle]L-OH), the figure is 6.3 nM. The same measure, in the same setting: then `CC(C)C[C@H](NC(=O)[C@@H](NC(=O)[C@H](Cc1ccc(O)cc1)NC(=O)[C@@H]1CCN1C(=O)[C@H](CCCN=C(N)N)NC(=O)[C@@H](NC(=O)[C@H](CCCN=C(N)N)NC(=O)[C@@H]1CCCN1C(=O)[C@@H](CCCCN)NC(=O)CN(CCN(CCN(CC(=O)O)CC(=O)O)CC(=O)O)CC(=O)O)C1CCN(C(=N)N)CC1)C(C)(C)C)C(=O)O`, with 113 nM. Same read-out and setting: as for `CC(C)(C)[C@H](NC(=O)[C@H](Cc1ccc(O)cc1)NC(=O)[C@@H]1CCCN1C(=O)[C@H](CCCNC(=N)N)NC(=O)[C@@H](NC(=O)[C@@H]1CCCN1C(=O)[C@@H](CCCCN)NC(=O)CN(CCN(CCN(CC(=O)O)CC(=O)O)CC(=O)O)CC(=O)O)C1CCN(C(=N)N)CC1)C(=O)N[C@@H](CC1CCCC1)C(=O)O`, the figure is 42.4 nM.

Still in this experiment, the particulars now being: ht-29.
The compound `CC(C)C[C@H](NC(=O)[C@@H](NC(=O)[C@H](Cc1cccc(O)c1)NC(=O)[C@@H]1CCCN1C(=O)[C@H](CCCN=C(N)N)NC(=O)[C@@H](NC(=O)[C@@H]1CCCN1C(=O)[C@@H](CCCCN)NC(=O)CN(CCN(CCN(CC(=O)O)CC(=O)O)CC(=O)O)CC(=O)O)C1CCN(C(=N)N)CC1)C(C)(C)C)C(=O)O` showed an IC50 of 106 nM. Same read-out and setting: then `CC[C@H](C)[C@H](NC(=O)[C@H](Cc1ccc(O)cc1)NC(=O)[C@@H]1CCCN1C(=O)[C@H](CCCNC(=N)N)NC(=O)[C@@H](NC(=O)[C@@H]1CCCN1C(=O)[C@@H](CCCCN)NC(=S)Nc1ccc2c(c1)C(=O)OC21c2ccc(O)cc2Oc2cc(O)ccc21)C1CCN(C(=N)N)CC1)C(=O)N[C@@H](CC(C)C)C(=O)O`, with 1.2 nM. On the same count and under the same terms, as for `CC(C)C[C@H](NC(=O)[C@@H](NC(=O)[C@H](Cc1ccc(O)cc1)NC(=O)[C@@H]1CCCN1C(=O)[C@H](CCCN=C(N)N)NC(=O)[C@@H](NC(=O)[C@@H]1CCCN1C(=O)[C@@H](CCCCN)NC(=O)CN(CCN(CCN(CC(=O)O)CC(=O)O)CC(=O)O)CC(=O)O)C1CCN(C(=N)N)CC1)C(C)(C)C)C(=O)O`, the figure is 0.4 nM; as for `CC(C)C[C@H](NC(=O)[C@@H](NC(=O)[C@H](Cc1ccc(O)cc1)NC(=O)[C@@H]1CCCN1C(=O)[C@H](CCCN=C(N)N)NC(=O)[C@@H](NC(=O)[C@@H]1CCCN1C(=O)[C@@H](NC(=S)Nc1ccc2c(c1)C(=O)OC21c2ccc(O)cc2Oc2cc(O)ccc21)C1CCNCC1)C1CCN(C(=N)N)CC1)C(C)(C)C)C(=O)O` ({FITC}-[Gly(piperidin-4-yl)]P[Gly(1-amidinopiperidin-4-yl)]RPY[Tle]L-OH), 0.5 nM; as for `CC[C@H](C)[C@H](NC(=O)[C@H](Cc1ccc(O)cc1)NC(=O)[C@@H]1CCCN1C(=O)[C@H](CCCN=C(N)N)NC(=O)[C@@H](NC(=O)[C@@H]1CCCN1C(=O)[C@H](N)CCCCNC(=S)Nc1ccc2c(c1)C(=O)OC21c2ccc(O)cc2Oc2cc(O)ccc21)C1CCN(C(=N)N)CC1)C(=O)N[C@@H](CC(C)C)C(=O)O`, 0.6 nM. Same read-out and setting: as for `CC(C)C[C@H](NC(=O)[C@@H](NC(=O)[C@H](Cc1ccc(O)cc1)NC(=O)[C@@H]1CCCN1C(=O)[C@@H](NC(=O)[C@@H](NC(=O)[C@@H]1CCCN1C(=O)[C@@H](CCCCN)NC(=O)CN(CCN(CCN(CC(=O)O)CC(=O)O)CC(=O)O)CC(=O)O)C1CCN(C(=N)N)CC1)C1CCNCC1)C(C)(C)C)C(=O)O`, the figure is 59.6 nM; as for `CC[C@H](C)[C@H](NC(=O)[C@H](Cc1ccc(O)cc1)NC(=O)[C@@H]1CCCN1C(=O)[C@H](CCCN=C(N)N)NC(=O)[C@H](CCc1ccnc(N)n1)NC(=O)[C@@H]1CCCN1C(=O)[C@@H](CCCCN)NC(=O)CN(CCN(CCN(CC(=O)O)CC(=O)O)CC(=O)O)CC(=O)O)C(=O)N[C@@H](CC(C)C)C(=O)O`, 10.2 nM; as for `CC(C)C[C@H](NC(=O)[C@@H](NC(=O)[C@@H](Cc1ccc(O)cc1)NC(=O)[C@@H]1CCCN1C(=O)[C@H](CCCN=C(N)N)NC(=O)[C@@H](NC(=O)[C@@H]1CCCN1C(=O)[C@@H](CCCCN)NC(=O)CN(CCN(CCN(CC(=O)O)CC(=O)O)CC(=O)O)CC(=O)O)C1CCN(C(=N)N)CC1)C(C)(C)C)C(=O)O`, 0.6 nM. `CC[C@H](C)[C@H](NC(=O)[C@H](Cc1ccc(O)cc1)NC(=O)[C@@H]1CCCN1C(=O)[C@H](CCCN=C(N)N)NC(=O)[C@@H](NC(=O)[C@@H]1CCCN1C(=O)[C@@H](CCCCNC(=S)Nc1ccc2c(c1)C(=O)OC21c2ccc(O)cc2Oc2cc(O)ccc21)NC(=S)Nc1ccc2c(c1)C(=O)OC21c2ccc(O)cc2Oc2cc(O)ccc21)C1CCN(C(=N)N)CC1)C(=O)N[C@@H](CC(C)C)C(=O)O` had an IC50 of 3.4 nM.
